We go through 10 compounds from publication PMC3457657 (Medicinal chemistry research : an international journal for …, 2011).

The structures appear in SMILES notation. Read-outs that look alike come from different tables or passages of the source. Bounds are passed on as bounds.

Series [1] deals with S. aureus. The settings on record: ref Desbois et al., 2008; cited from earlier work.
The subject of series [2] is Cryptococcus neoformans ATCC 90113. As to the kind of experiment: In vitro antimicrobial. The class given is cell-based. The conditions noted are these: ATCC90113, read-out: IC50 Antifungal C. neoformans.
The test system of series [3] is Staphylococcus aureus ATCC 29213. As to the kind of experiment: In vitro antimicrobial. The class given is cell-based. The conditions noted are these: ATCC29213, read-out: IC50 Antibacterial S. aureus.
The test system of series [4] is mitochondrial respiration. The conditions noted are these: ref Kawai et al., 1986; cited from earlier work.
In series [5] the test system is mouse skin tumor promotion. The conditions noted are these: two-stage carcinogenesis; ref Mikaye et al., 2010; cited from earlier work.
For series [6] the following is noted: ref Mikaye et al., 2009; Ishikawa et al., 1984; Li et al., 2006; cited from earlier work.
Series [7] concerns HeLa cells. The conditions noted are these: cited from earlier work.
In series [8] the test system is methicillin-resistant S. aureus ATCC 33591 (MRS). As to the kind of experiment: In vitro antimicrobial. Format: cell-based. The settings on record: Staphylococcus aureus, ATCC33591, read-out: IC50 Antibacterial MRS.
For series [9], the system named is sex cells of the sea urchin Strongylocentrotus intermedius. The conditions noted are these: at a concentration of 0.5 mg/l; ref Smetanina et al., 2007; cited from earlier work.
Series [10] relates to P. falciparum chloroquine-sensitive strain (D6, Sierra Leone). As to the kind of experiment: In vitro antimalarial activity, plasmodial LDH activity. The settings on record: chloroquine-sensitive strain D6, 72 h. Format: cell-based, Plasmodium falciparum.
Series [11] has as its system P. falciparum chloroquine-resistant strain (W2, Indo China). The description is as above. Format: cell-based, Plasmodium falciparum. The settings on record: chloroquine-resistant strain W2, 72 h.
For series [12] the following is noted: ref Ali et al., 1989; cited from earlier work.
The conditions of series [13]: ref Vesonder et al., 1988; cited from earlier work.
For series [14] the following is noted: ref Mori et al., 1984; cited from earlier work.
The conditions of series [15]: ref Vesonder et al., 1988; cited from earlier work. The source holds these as a separate data set.
For series [16] the following is noted: ref Fujimoto et al. 1999; cited from earlier work.
Series [17] concerns visceral and cutaneous leishmaniasis. The settings on record: oral drug, ref Berman, 2008; cited from earlier work.

On to `CCCCCC/C=C\CCCCCCCC(=O)O` [(9Z)-hexadecenoic acid], for which the “potency against S. aureus relative to (6Z, 9Z, 12Z)-hexadecatrienoic acid (HTA)” value in series [1] is listed as “about twice as much”.
By IC50 is commonly meant the point on the concentration scale where inhibition reaches its midpoint. As to `CCCCC/C=C/c1c(O)cc(CC=C(C)C)c(O)c1CO` [Compound 1, (E)-2-(hept-1-enyl)-3-(hydroxymethyl)-5-(3-methylbut-2-enyl)benzene-1,4-diol], the IC50 in series [2] and in series [3] was greater than 20 µg/mL each time.
Turning to `CCCCCCCc1c(O)cc(CC=C(C)C)c(O)c1C=O` [Compound 2, flavoglaucin], the IC50 in series [2] was greater than 20 µg/mL. Also, in [4], the mitochondrial respiration result was “inhibited mitochondrial respiration” and the mitochondrial swelling result is given as “induced mitochondrial swelling”. The “inhibition of mouse skin tumor promotion” value in [5] was “inhibited”. Moreover, the “antioxidant activity and radical scavenging activity against DPPH” value in series [6] is “antioxidant activity and radical scavenging activity”. Further, the “cytotoxicity to HeLa cells” value in [7] was “cytotoxic”.
Turning to `CCCCC/C=C/c1c(O)cc(CC=C(C)C)c(O)c1C=O` [Compound 3, tetrahydroauroglaucin], the IC50 in [2] and in [8] was greater than 20 µg/mL each time. Also, in series [5], the “inhibition of mouse skin tumor promotion” value is “inhibited”. Also, the “antioxidant activity and radical scavenging activity against DPPH” value in [6] was “antioxidant activity and radical scavenging activity”. The “cytotoxic activity against sex cells of the sea urchin” value in series [9] was “cytotoxic activity”.
Regarding `CCC/C=C/C=C/c1c(O)cc(CC=C(C)C)c(O)c1C=O` [Compound 4, dihydroauroglaucin], the IC50 in series [2], in [8] and in series [3] was greater than 20 µg/mL throughout. Besides, the “inhibition of mouse skin tumor promotion” value in series [5] is reported as “inhibited”. In addition, the “IC50 Antimalarial P. falciparum D6” value in series [10] is “inactive”. Moreover, in series [6], the “antioxidant activity and radical scavenging activity against DPPH” value was “antioxidant activity and radical scavenging activity”. For the same compound, the “IC50 Antimalarial P. falciparum W2” value in series [11] is “inactive”.
As to `C/C=C/C=C/C=C/c1c(O)cc(CC=C(C)C)c(O)c1C=O` [Compound 5, auroglaucin], the IC50 in series [2], in series [8] and in series [3] was greater than 20 µg/mL each time. In [5], the “inhibition of mouse skin tumor promotion” value is given as “inhibited”. The “antioxidant activity and radical scavenging activity against DPPH” value in series [6] is “antioxidant activity and radical scavenging activity”.
Turning to `CCC/C=C/c1cc2c(C=O)c(O)c(CC=C(C)C)cc2o1` [Compound 6, 2-(2′,3-epoxy-1′,3′-heptadienyl)-6-hydroxy-5-(3-methyl-2-butenyl)benzaldehyde], the “IC50 Antimalarial P. falciparum D6” value in [10] was “inactive”. Moreover, the “antioxidant activity and radical scavenging activity against DPPH” value in series [6] was “antioxidant activity and radical scavenging activity”. The “IC50 Antimalarial P. falciparum W2” value in [11] was “inactive”.
`C=CC(C)(C)c1[nH]c2c(CC=C(C)C)cc(CC=C(C)C)cc2c1C[C@@H]1NC(=O)[C@H](C)NC1=O` [Compound 7, echinulin]: the IC50 in [2], in series [8] and in [3] was greater than 20 µg/mL each time. Further, in series [12], the “organ damage (alveolar, liver)” value was “severe damage of alveolar organization and thickening of alveolar walls and liver damage”. Moreover, in series [13], the “concentration in the water causing drinking refusal in mice” value was 90000 ng/mL. In [14], the genotoxicity result is listed as “not genotoxic”. Moreover, the “cytotoxicity to HeLa cells” value in series [7] (at the concentration of 100 mg/l, ref Umeda et al., 1974, Wang et al., 2006) was “cytotoxicity”. For the same compound, the “concentration in food that swine refused to eat” value in series [15] is 8 ng/mL.
As to `Cc1c(O)cc(O)c2c1COC2=O` [Compound 8, 5,7-dihydroxy-4-methylphthalide], the immunosuppressive activity entry in series [16] is “immunosuppressive activity”. The IC50 in series [8] and in series [3] was greater than 20 µg/mL each time.
For the compound `CCCCCCCCCCCCCCCCOP(=O)([O-])OCC[N+](C)(C)C` [Miltefosine], in series [17], the cure rates result is “about 98%”.
